{"source": "patent US6835551B2", "about": "“Basophil degranulation test” (Orpegen Pharma GmbH, priority 1999, dated 2004)", "tested_on": "basophilic granulocytes", "conditions": "fMLP 10^-7 M, 30 minutes at 37° C., typical values", "procedure": "Peripheral blood (heparinised) of the patient is incubated with various concentrations of the suspected allergen at 37° C. […] The detection is carried out by a three colour immunofluorescence and flow cytometric analysis. The chemotactic peptide fMLP serves as a positive control and a buffer solution (PBS) is used as the negative control.\nThe sample to be examined is divided into aliquots of 100 μl in each case. In the case of high leukocyte numbers (WBC of 10-20,000 C/μl) it is possible to use a smaller sample volume e.g. 50 μl. Multiple test mixtures are not necessary.\nALK-depot SQ (Scherax) mixture of 6 grasses+rye is used at concentrations of 10,000, 1,000, 100 and 10 U/ml. ALK-prick SQ (Scherax) bee venom and ALK-prick SQ (Scherax) wasp venom are used at concentrations of 10, 1, 0.1 and 0.01 μg/ml. Latex allergens, PPL (allergopen) and MDM (allergopen) are used in dilutions of 1:10, 1:100 and 1:1,000. Penicillin Grünenthal is used at concentrations of 100, 10, 1 and 0.1 μg/ml. PBS serves as a negative control and fMLP at a concentration of 10^−7 M (i.e. 1:2,000 PBS) is used as the positive control. A sample from a healthy normal test person is also assayed as a further control.\n100 μl of each of the allergen dilutions is added to an aliquot of the sample, mixed and incubated for 30 minutes at 37° C. in a water bath. Then the mixtures are placed on ice.\nThe following antibody solutions are then added.\na) 20 μl anti gp55-FITC (prediluted)\nb) 20 μl anti IgE-PE (prediluted)\nc) 10 μl anti CD45-cychrome or 20 μl CD45-PerCP\nAfter antibody addition it is well mixed (vortex) and incubated for 20 minutes on ice while protected from light.\n2 ml FACS lysing solution (erythrocyte lysis and leukocyte fixation) is then added, it is mixed (vortex) and incubated for 10 minutes at room temperature while protected from light. Subsequently it is centrifuged for 5 min at 1300 rpm or 300 g and decanted.\nThe cells are washed by adding 3 ml wash solution (PBS), centrifuging (5 min at 1300 rpm or 300 g) and decanting.\nThe sample is measured by flow cytometry for example on an FACS scan instrument. The stability of the measured sample is presumably ≧2 hours on flaked ice in the dark.\nIn the SSC/IgE dot plot, a region is set around the cells with low and high side scattered light and strong IgE expression. […] The markers are set such that the evaluation region covers the region of the gp55 positive basophils (the PBS test mixture serves as a negative control). The mean value FL1 is observed in all (also gp55-negative) cell populations. If possible, at least 1000 cells of the subclass of interest (in this case basophils) are recorded. […] It is therefore possible to view the percentage which is adequate for evaluating the test result."}
{"substance": "fMLP", "values": [{"measurement": "% basos", "setting": "heparinised whole blood", "value": 2.35, "unit": "%"}, {"measurement": "mean gp55", "setting": "mean FL1 of all basophils", "value": 369}, {"measurement": "mean CD45", "setting": "mean fluorescence (CD45 expression density) of basophils", "value": 349}, {"measurement": "mean IgE", "setting": "mean fluorescence (IgE density) of basophils", "value": 981}, {"measurement": "% gp55", "setting": "percentage of gp55-positive basophilic granulocytes", "value": 30.6, "unit": "%"}]}
